Assays:
[1] = tested on: Annexin V, an apoptosis marker, in muscle tissue; assay: Annexin V immunohistochemical staining in muscle tissue of muscle disease mouse model after injection of treated P18 cells; assay type: in vivo; conditions: P18 cells treated with 160 μM for 72 hours, 5×10^4 cells per mouse via tail vein, one week after injection
Method: A replicative senescence model (P18) was treated with nervonic acid (160 μM) and then injected into a muscle disease mouse model to assess the effect of nervonic acid treatment on the therapeutic efficacy of the replicative senescence model (P18) in terms of reducing apoptosis in muscle tissue.
Specifically, the muscle disease mouse model used was C57BL/10ScSn-Dmdmdx/J (mdx mouse) , and C57BL/10J with the same genetic background was used as a control group. All experiments were conducted using mice aged 4 to 5 months. The cells to be injected were human umbilical cord-derived young mesenchymal stem cells (control group) (P5) and replicative senescence model (P18). […]
In order to assess the extent of apoptosis in the muscle tissue of a muscle disease mouse model after injecting mesenchymal stem cells for each condition, the extent of apoptosis in the tissue was determined through immunohistochemical staining for Annexin V, an apoptosis marker. […] Then, the secondary antibody (fluorescence-labeled polymer anti-rabbit) was added and incubated for […] followed by mounting, DAPI staining, washing, and then observation and photography under a fluorescence microscope.

[2] = tested on: senescence markers P16 and P21; assay: Western blotting of P16 and P21 in replicative senescence model (P18); assay type: cell-based, human; conditions: 160 μM
Method: In order to verify the anti-senescence efficacy of nervonic acid, the expression levels of senescence-related markers in a control group (P5) and a replicative senescence model (P18) were measured after treatment with nervonic acid (160 μM).
Specifically, Western blotting performed in this example is as follows: cells were collected, and the cell membrane was broken using RIPA buffer, followed by centrifugation to collect the supernatant. Intracellular proteins were quantified using the Bradford assay (Bio-Rad, USA), and 20 μg of protein for each sample was loaded onto the gel, followed by electrophoresis using SDS. After transferring the protein to a polyvinylidene fluoride (PVDF) membrane, 1× TBST (Tris-buffered saline with 0.1% Tween 20) solution containing 5% skim milk (BD Difco, USA) was added and incubated at room temperature for 1 hour. Thereafter, P16 (1: 1000, Cell Signaling, USA), P21 (1: 1000, Cell Signaling, USA), and β-actin (1:5000; Santa Cruz, USA) antibodies were added and incubated overnight at 4° C. Then, the secondary antibody (anti-rabbit IgG-HRP; ABClon, Korea) was added and incubated at room temperature for one hour. Afterwards, the blots were visualized using ECL (Bio-Rad, USA) and assessed.

[3] = tested on: replicative senescence model of human umbilical cord-derived mesenchymal stem cells (P18); assay: β-galactosidase staining, extent of senescence, replicative senescence model (P18); assay type: cell-based; parameters: dose or concentration left out as unconfirmed
Method: Compared to the control cells (P5) in which the extent of senescence was 0.21 % of the total, the extent of senescence in the senescence-induced mesenchymal stem cells (P18) was increased to 42.44% of the total, confirming the progression of replicative senescence (FIGs. 1a and 1b). Specifically, individual cells (5×10^4/well) were suspended in a 6-well plate and stabilized for 24 hours, followed by adding β-galactosidase staining solution and staining for 24 hours, after which the extent of senescence was measured under a microscope.
Therefore, it was confirmed that this concentration was an optimal concentration that inhibited the extent of senescence by inducing apoptosis specifically in the replicative senescence model (P18) without affecting the cytotoxicity of the control cells (P5).

[4] = tested on: senescence markers P16 and P21; assay: qRT-PCR of senescence markers p16 and p21 at P10 after treatment at each passage; assay type: cell-based, human; conditions: 160 μM for 24 hours at each passage
Method: (§1) Specifically, qRT-PCR performed in this example is as follows: after treating the replicative senescence model (P18) with nervonic acid for 3 days, total RNA was extracted using Trizol (Invitrogen, MA, USA) according to the method provided by the vendor. After quantifying the extracted total RNA, random hexamer and dNTP were added, and PCR was performed at 65° C. for 5 minutes. 5× SSIV buffer, 100 mM DTT, RNAse OUT, and Superscript IV RT were added and reverse transcription was performed to synthesize cDNA, and then qRT-PCR was performed to measure gene expression, and the expression levels were compared through 2^−ΔΔCt analysis.
Example 8. Confirmation Of anti-senescence efficacy by treating various human tissue-derived mesenchymal stem cells with nervonic acid Human-derived mesenchymal stem cells were treated with nervonic acid (160 μM) at each passage during cell culture from control cells (P5) to P10 to determine whether continuous treatment with nervonic acid during cell culture at early passage numbers was able to delay cellular senescence.
Specifically, from the day after human-derived mesenchymal stem cells were subcultured, treatment with 160 μM nervonic acid or an equivalent amount of DMSO (control) for 24 hours was performed, followed by replacement with the existing culture medium the next day. The above process was repeated to perform subculture up to P10 (passage 10). […]

[5] = tested on: SASP (senescence-associated secretory phenotype) markers MMP3, IGFBP5, IGFBP7; assay: qRT-PCR of SASP markers in replicative senescence model (P18); assay type: cell-based, human; conditions: 160 μM, 3 days
Method: Additionally, there is a report in which the gene expression of SASP (senescence-associated secretory phenotype) is increased in senescent cells, so the expression of MMP3, IGFBP5, and IGFBP7 was assessed at the mRNA level through qRT-PCR.
as §1

CCCCCCCC/C=C\CCCCCCCCCCCCCC(=O)O [nervonic acid]
Annexin V expression level (immunohistochemical staining) compared to mdx control group [1]: significantly reduced | P16 protein expression level, fold compared to before treatment [2]: 0.65±0.07 fold | P21 protein expression level, fold compared to before treatment ([2]; not significant): 0.82±0.07 fold | extent of senescence (β-galactosidase staining), fold decrease compared to before treatment [3]: 0.41±0.04 fold | p16 mRNA expression, fold compared to control group (DMSO) [4]: 0.84±0.05 fold | p21 mRNA expression, fold compared to control group (DMSO) [4]: 0.84±0.03 fold | IGFBP5 mRNA expression, fold compared to before treatment [5]: 0.62±0.03 fold | IGFBP7 mRNA expression, fold compared to before treatment [5]: 0.77±0.03 fold | MMP3 mRNA expression, fold compared to before treatment [5]: 0.76±0.04 fold

From patent US20260226417A1, “METHOD FOR INHIBITING AGING OF STEM CELLS” (ENCELL CO., LTD, priority 2023, published 2026)
